According to PubChem BioAssay AID1591 (Sanford-Burnham Center for Chemical Genomics, 2009):

Test system: human plasma stability, LC/MS/MS, 180 min
Assay: human plasma degradation, percent remaining – biochemical, LC/MS/MS, 180 min, dry powder, ADME assay, late-stage follow-up (AID 1591)
Settings: at 1 µM; active compounds read low

## C=CCn1c(SCC(=O)c2ccc(O)c(O)c2)nnc1-c1ccccc1OC
  percent remaining: 82.6%
